According to patent US20250154108A1 (priority 2022, published 2025):

Assay: in vivo
Set-up: species or system SD rats
Conditions: male, SD, rat, plasma, po, 1 mg/kg; read-out: Bioavailability F

bioavailability: 123%
SMILES: C[C@H](NC1=CC(=O)C2(CCCC2)C(=O)N1)c1cc(F)ccc1F [Compound of formula (I)]
